From patent publication US20180360953A1 (priority 2015, published 2018)

Tested on: PA-specific Ab responses
Design: species or system mice
Settings: mouse, in vivo, ip

Cc1c(-c2ccnn2C)cc(C(=O)NCc2ccc(S(C)(=O)=O)cn2)c(=O)n1-c1cccc(C(F)(F)F)c1 [Alvelestat, alvelestat]
High affinity PA-specific serum IgG1 and IgA Ab responses: promotes high affinity Abs
